The nature of series [1]: Plasma pharmacokinetics of phenolic metabolites after intake of the GCPE nutraceutical (LC-MS-QToF). To be noted: for AUC(0-t) / Tmax: 300 mg hydroxycinnamic acids; for AUC(0-t): AUC0–24h; for Tmax: Tmax (h) or Range; for Cmax: mean ± SEM, n = 9.
Series [2] in a line: Urinary excretion of phenolic metabolites after intake of the GCPE nutraceutical. To be noted: for Cumulative urinary excretion, Total 0–24 h / Urinary excretion: urine; for Cumulative urinary excretion, Total 0–24 h: mean ± SEM, n = 9.
Where [3] appears, read: human, oral, week 0, first peak where biphasic.
Setting [4] is: human, oral, week 8, first peak where biphasic.
[5] abbreviates: human, oral, 300 mg, Cmax, week 0, GCPE nutraceutical with 300 mg hydroxycinnamic acids.
Setting [6] is: human, oral, 300 mg, Cmax, week 8, GCPE nutraceutical with 300 mg hydroxycinnamic acids.
Where [7] appears, read: week 0, GCPE nutraceutical with 300 mg hydroxycinnamic acids.
[8] abbreviates: week 0, first peak where biphasic.
Where [9] appears, read: week 8, GCPE nutraceutical with 300 mg hydroxycinnamic acids.
[10] abbreviates: week 8, first peak where biphasic.

The results in this text go back to publication PMC9230201, “Sustained Consumption of a Decaffeinated Green Coffee Nutraceutical Has Limited Effects on Phenolic Metabolism and Bioavailability in Overweight/Obese Subjects” (Nutrients, 2022).

Values joined by “and” are separate entries in the source; they are usually repeats but may differ in a detail not shown here. Equal entries are not always repeated.

`COc1ccc(CCC(=O)O)cc1O` [DHiFA, 3-(3′-Hydroxy-4′-methoxyphenyl) propanoic acid]: the AUC(0-t) in series [1] (human, oral, week 0) amounted to 0.5 ± 0.2 µM·h; in series [1] (human, oral, week 8) it was 0.6 ± 0.2 µM·h. Besides, the Tmax in series [1] (setting [3]) and in series [1] (setting [4]) was 7 ± 1 h each time. Moreover, the Cmax in series [1] (setting [5]) and in series [1] (setting [6]) was 70 ± 20 nM throughout. In addition, the “Cumulative urinary excretion, Total 0–24 h” value (shortened to “Cumulative urinary excretion”) was found to be 3.7 ± 0.4 µmol in series [2] (week 0) and 3.2 ± 0.2 µmol in series [2] (week 8). Further, the Amount excreted in urine, 0- 3 h is 0.26 ± 0.04 µmol in series [2] (week 0, interval 0–3 h) and 0.32 ± 0.07 µmol in series [2] (week 8, interval 0–3 h). Further, the Amount excreted in urine, 3-6 h in series [2] (week 0, interval 3–6 h) is 0.25 ± 0.08 µmol; in series [2] (week 8, interval 3–6 h), 0.38 ± 0.08 µmol. The Amount excreted in urine, 6-9 h in series [2] (week 0, interval 6–9 h) was determined as 1.2 ± 0.3 µmol; in series [2] (week 8, interval 6–9 h) it was 1 ± 0.2 µmol. Moreover, the Amount excreted in urine, 9-11 h is 0.8 ± 0.2 µmol in series [2] (week 0, interval 9–11 h) and 0.7 ± 0.2 µmol in series [2] (week 8, interval 9–11 h). In addition, the Amount excreted in urine, 11-24 h in series [2] (week 0, interval 11–24 h) turned out to be 1.2 ± 0.09 µmol; in series [2] (week 8, interval 11–24 h), 1 ± 0.2 µmol.

`COc1ccc(CCC(=O)O)cc1O[C@@H]1O[C@H](C(=O)O)[C@@H](O)[C@H](O)[C@H]1O` [DHiFA-3′-glucuronide, 3-(4′-Methoxyphenyl)propanoic acid-3′-glucuronide]: the “AUC0–24h” value turned out to be 0.6 ± 0.4 µM/min in series [1] (week 0) and 0.7 ± 0.4 µM/min in series [1] (week 8). In addition, the Cmax is 60 ± 20 nM in series [1] (setting [7]) and 70 ± 30 nM in series [1] (setting [9]). Besides, the “Tmax (h) or Range” value in series [1] (setting [8]) worked out at 9.0 ± 0.6 h; in series [1] (setting [10]), 8.1 ± 0.8 h. Also, the “Cumulative urinary excretion” value is listed as 2.9 ± 0.5 µmol in series [2] (week 0) and 3.1 ± 0.7 µmol in series [2] (week 8). The Amount excreted in urine, 0- 3 h in series [2] (week 0, interval 0–3 h) was 0.12 ± 0.04 µmol; in series [2] (week 8, interval 0–3 h), 0.3 ± 0.1 µmol. The Amount excreted in urine, 3-6 h in series [2] (week 0, interval 3–6 h) worked out at 0.16 ± 0.06 µmol; in series [2] (week 8, interval 3–6 h), 0.28 ± 0.07 µmol. The Amount excreted in urine, 6-9 h in series [2] (week 0, interval 6–9 h) amounted to 1.1 ± 0.4 µmol; in series [2] (week 8, interval 6–9 h), 1.1 ± 0.2 µmol. In addition, the Amount excreted in urine, 9-11 h in series [2] (week 0, interval 9–11 h) was found to be 0.7 ± 0.2 µmol; in series [2] (week 8, interval 9–11 h), 0.8 ± 0.4 µmol. Besides, the Amount excreted in urine, 11-24 h is 0.8 ± 0.2 µmol in series [2] (week 0, interval 11–24 h) and 0.6 ± 0.3 µmol in series [2] (week 8, interval 11–24 h).

On to `COc1ccc(CCC(=O)O)cc1OS(=O)(=O)O` [DHiFA-3′-sulfate, 3-(4′-Methoxyphenyl)propanoic acid-3′-sulfate], for which the “AUC0–24h” value was found to be 0.3 ± 0.1 µM/min in series [1] (week 0) and 0.8 ± 0.5 µM/min in series [1] (week 8). The Cmax in series [1] (setting [7]) was determined as 40 ± 10 nM; in series [1] (setting [9]), 110 ± 60 nM. In addition, the “Tmax (h) or Range” value in series [1] (setting [8]) was determined as 7 ± 1 h; in series [1] (setting [10]), 11.6 ± 3.2 h. The “Cumulative urinary excretion” value in series [2] (week 0) is recorded as 3 ± 1 µmol; in series [2] (week 8), 2.6 ± 0.8 µmol. Further, the Amount excreted in urine, 0- 3 h in series [2] (week 0, interval 0–3 h) amounted to 0.18 ± 0.06 µmol; in series [2] (week 8, interval 0–3 h), 0.14 ± 0.04 µmol. The Amount excreted in urine, 3-6 h was 0.1 ± 0.04 µmol in series [2] (week 0, interval 3–6 h) and 0.09 ± 0.03 µmol in series [2] (week 8, interval 3–6 h). The Amount excreted in urine, 6-9 h came to 0.4 ± 0.1 µmol in series [2] (week 0, interval 6–9 h) and 0.24 ± 0.09 µmol in series [2] (week 8, interval 6–9 h). Further, the Amount excreted in urine, 9-11 h came out at 0.2 ± 0.1 µmol in series [2] (week 0, interval 9–11 h) and 0.11 ± 0.03 µmol in series [2] (week 8, interval 9–11 h). Also, the Amount excreted in urine, 11-24 h in series [2] (week 0, interval 11–24 h) worked out at 1.9 ± 0.8 µmol; in series [2] (week 8, interval 11–24 h) it was 2 ± 0.7 µmol.

Take `COc1ccc(CCC(=O)O)cc1OC` [Dihydrodimethoxycinnamic acid, 3-(3′,4′-Dimethoxyphenyl)propanoic acid]: the AUC(0-t) in series [1] (human, oral, week 0) turned out to be 1.2 ± 0.1 µM·h; in series [1] (human, oral, week 8), 1.3 ± 0.1 µM·h. The Tmax was determined as 4 ± 1 h in series [1] (setting [3]) and 10 ± 4 h in series [1] (setting [4]). Further, the Cmax is 110 ± 20 nM in series [1] (setting [5]) and 120 ± 10 nM in series [1] (setting [6]). Moreover, the “Cumulative urinary excretion” value in series [2] (week 0) was found to be 0.7 ± 0.2 µmol; in series [2] (week 8) it was 0.63 ± 0.08 µmol. Besides, the Amount excreted in urine, 0- 3 h in series [2] (week 0, interval 0–3 h) worked out at 0.08 ± 0.02 µmol; in series [2] (week 8, interval 0–3 h), 0.08 ± 0.01 µmol. Besides, the Amount excreted in urine, 3-6 h in series [2] (week 0, interval 3–6 h) turned out to be 0.08 ± 0.01 µmol; in series [2] (week 8, interval 3–6 h) it was 0.06 ± 0.01 µmol. Also, the Amount excreted in urine, 6-9 h in series [2] (week 0, interval 6–9 h) was 0.2 ± 0.1 µmol; in series [2] (week 8, interval 6–9 h), 0.12 ± 0.03 µmol. For the same molecule, the Amount excreted in urine, 9-11 h turned out to be 0.09 ± 0.02 µmol in series [2] (week 0, interval 9–11 h) and 0.12 ± 0.04 µmol in series [2] (week 8, interval 9–11 h). Further, the Amount excreted in urine, 11-24 h is 0.27 ± 0.06 µmol in series [2] (week 0, interval 11–24 h) and 0.25 ± 0.05 µmol in series [2] (week 8, interval 11–24 h).

On to `COc1cc(C=CC(=O)O)ccc1OC1OC(C(=O)O)C(O)C(O)C1O` (centres unmarked) [FA-4′-glucuronide, 3′-Methoxycinnamic acid-4′-glucuronide], for which the “AUC0–24h” value worked out at 0.06 ± 0.01 µM/min in series [1] (week 0) and 0.063 ± 0.02 µM/min in series [1] (week 8). The Cmax in series [1] (setting [7]) was 16 ± 9 nM; in series [1] (setting [9]) it was 9 ± 2 nM. Moreover, in series [1] (week 0, biphasic profile), the “Tmax, second peak” value came to 4.7 ± 0.3 h. In addition, the “Tmax (h) or Range” value in series [1] (setting [8]) and in series [1] (setting [10]) was 1.2 ± 0.3 h throughout. Further, the entries for the “Cumulative urinary excretion” value in series [2] (week 0) and in series [2] (week 8) were 3.4 ± 0.4 µmol and 3.7 ± 0.5 µmol, respectively. The Amount excreted in urine, 0- 3 h worked out at 0.5 ± 0.1 µmol in series [2] (week 0, interval 0–3 h) and 0.6 ± 0.1 µmol in series [2] (week 8, interval 0–3 h). Further, the Amount excreted in urine, 3-6 h in series [2] (week 0, interval 3–6 h) stood at 0.42 ± 0.07 µmol; in series [2] (week 8, interval 3–6 h) it was 0.37 ± 0.05 µmol. Besides, the Amount excreted in urine, 6-9 h in series [2] (week 0, interval 6–9 h) is 0.7 ± 0.2 µmol; in series [2] (week 8, interval 6–9 h), 0.8 ± 0.1 µmol. Moreover, the Amount excreted in urine, 9-11 h came out at 0.44 ± 0.09 µmol in series [2] (week 0, interval 9–11 h) and 0.8 ± 0.3 µmol in series [2] (week 8, interval 9–11 h). Moreover, the Amount excreted in urine, 11-24 h in series [2] (week 0, interval 11–24 h) turned out to be 1.3 ± 0.3 µmol; in series [2] (week 8, interval 11–24 h) it was 1.3 ± 0.2 µmol.

Consider `COc1cc(C=CC(=O)O)ccc1OS(=O)(=O)O` [FA-4′-sulfate, 3′-Methoxycinnamic acid-4′-sulfate], for which the “AUC0–24h” value was 0.11 ± 0.03 µM/min in series [1] (week 0) and 0.13 ± 0.02 µM/min in series [1] (week 8). Also, the Cmax in series [1] (setting [7]) and in series [1] (setting [9]) was 17 ± 4 nM throughout. The “Tmax, second peak” value in series [1] (week 0, biphasic profile) is on record as 6.8 ± 0.7 h; in series [1] (week 8, biphasic profile) it was 7.2 ± 0.6 h. In addition, the “Tmax (h) or Range” value in series [1] (setting [8]) stood at 0.78 ± 0.09 h; in series [1] (setting [10]), 0.56 ± 0.06 h. In addition, the figures for the Urinary excretion in series [2] (week 0) and in series [2] (week 8) were 32 µmol/24 h and 33 µmol/24 h, respectively. Besides, the “Cumulative urinary excretion” value in series [2] (week 0) is 32 µmol and 32 ± 5 µmol; in series [2] (week 8), 33 µmol and 33 ± 5 µmol. In addition, the Amount excreted in urine, 0- 3 h in series [2] (week 0, interval 0–3 h) was 5 ± 2 µmol; in series [2] (week 8, interval 0–3 h), 4 ± 2 µmol. For the same molecule, the Amount excreted in urine, 3-6 h was found to be 3.2 ± 0.9 µmol in series [2] (week 0, interval 3–6 h) and 3.4 ± 0.7 µmol in series [2] (week 8, interval 3–6 h). In addition, the Amount excreted in urine, 6-9 h in series [2] (week 0, interval 6–9 h) stood at 7 ± 2 µmol; in series [2] (week 8, interval 6–9 h) it was 7 ± 1 µmol. The Amount excreted in urine, 9-11 h was determined as 3.6 ± 0.7 µmol in series [2] (week 0, interval 9–11 h) and 7 ± 2 µmol in series [2] (week 8, interval 9–11 h). Further, the Amount excreted in urine, 11-24 h was 13 ± 2 µmol in series [2] (week 0, interval 11–24 h) and 11 ± 2 µmol in series [2] (week 8, interval 11–24 h).
